Data as given in US20170037028A1 (BAYER PHARMA AKTIENGESELLSCHAFT, priority 2013, published 2017).
Like-named read-outs stand apart in the source and are kept apart here.

Target: T1, GLUT1 (Homo sapiens, UniProt P11166)
T1 sequence (P11166 1-492): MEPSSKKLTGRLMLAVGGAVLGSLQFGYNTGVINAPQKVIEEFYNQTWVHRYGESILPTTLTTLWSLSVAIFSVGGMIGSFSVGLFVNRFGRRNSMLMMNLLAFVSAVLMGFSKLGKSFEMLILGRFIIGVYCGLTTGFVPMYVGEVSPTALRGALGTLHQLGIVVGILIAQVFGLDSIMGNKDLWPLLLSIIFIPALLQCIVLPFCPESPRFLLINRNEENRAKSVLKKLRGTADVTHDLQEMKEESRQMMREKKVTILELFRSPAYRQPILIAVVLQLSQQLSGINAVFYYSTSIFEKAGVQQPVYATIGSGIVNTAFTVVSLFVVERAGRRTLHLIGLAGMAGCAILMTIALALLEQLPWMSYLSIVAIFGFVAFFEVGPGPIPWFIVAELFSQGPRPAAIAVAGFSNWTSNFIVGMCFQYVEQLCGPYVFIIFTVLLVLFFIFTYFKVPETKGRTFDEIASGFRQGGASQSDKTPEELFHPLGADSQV
Test: Indirect measurement of GLUT1 activity by quantification of intracellular ATP levels (glucose induced ATP increase)
Assay type: cell-based
Set-up: endogenous in cells; host or cells: DLD1 or CHO-K1
Conditions: read-out: IC50 regarding glucose induced ATP increase (GLUT1 inhibition)
Outline: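 DLD1 or CHO-K1 cells were starved overnight in glucose-free medium with 1% FCS, then combined with an oxidative phosphorylation inhibitor. GLUT1 activity was read as glucose-induced ATP increase, GLUT2 as fructose-induced. Intracellular ATP was quantified by CellTiter-Glo luminescence.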

[1] = DLD1 cells, 0.1 mM glucose, 1 μM Rotenone, 15 min, CellTiter-Glo ATP readout, IC50 values standardized to cytochalasin B IC50 values

SMILES	IC50 [nM]	IC50 [1] [nM]
COc1ccc(Cn2nc(C)c(NC(=O)c3cc(C(N)=O)nc4cc(F)c(Cl)cc34)c2C)cc1 [Example 214, 6-chloro-7-fluoro-N^4-[1-(4-methoxybenzyl)-3,5-dimethyl-1H-pyrazol-4-yl]quinoline-2,4-dicarboxamide]	1.1	
Cc1nn(Cc2ccccc2C#N)c(C)c1NC(=O)c1cc(C(N)=O)nc2cc(F)c(Cl)cc12 [Example 215, 6-chloro-N^4-[1-(2-cyanobenzyl)-3,5-dimethyl-1H-pyrazol-4-yl]-7-fluoroquinoline-2,4-dicarboxamide]	1.6	
Cc1nn(Cc2ccc(C#N)c(F)c2)c(C)c1NC(=O)c1cc(C(F)(F)F)nc2ccc(Br)cc12 [Example 218, 6-bromo-N-[1-(4-cyano-3-fluorobenzyl)-3,5-dimethyl-1H-pyrazol-4-yl]-2-(trifluoromethyl)quinoline-4-carboxamide]	3.4	
Cc1nn(Cc2cccnc2C#N)c(C)c1NC(=O)c1cc(C(N)=O)nc2cc(F)c(F)cc12 [Example 220, N^4-{1-[(2-cyanopyridin-3-yl)methyl]-3,5-dimethyl-1H-pyrazol-4-yl}-6,7-difluoroquinoline-2,4-dicarboxamide]	6.4	
Cc1nn(Cc2ccc(S(C)(=O)=O)cc2)c(C)c1NC(=O)c1cc(C(N)=O)nc2ccccc12 [Example 224, N^4-{3,5-dimethyl-1-[4-(methylsulfonyl)benzyl]-1H-pyrazol-4-yl}quinoline-2,4-dicarboxamide]	11.2	
COc1ccc(Cn2nc(C)c(NC(=O)c3cc(C(N)=O)nc4cc(F)c(F)cc34)c2C)cc1 [Example 226, 6,7-difluoro-N^4-[1-(4-methoxybenzyl)-3,5-dimethyl-1H-pyrazol-4-yl]quinoline-2,4-dicarboxamide]	4	
COc1ccc(Cn2nc(C)c(NC(=O)c3cc(C(N)=O)nc4ccc(F)cc34)c2C)cc1 [Example 227, 6-fluoro-N^4-[1-(4-methoxybenzyl)-3,5-dimethyl-1H-pyrazol-4-yl]quinoline-2,4-dicarboxamide]	4.6	
Cc1nn(Cc2ccc(F)cc2)c(C)c1NC(=O)c1cc(C(N)=O)nc2ccc(F)cc12 [Example 229, 6-fluoro-N^4-[1-(4-fluorobenzyl)-3,5-dimethyl-1H-pyrazol-4-yl]quinoline-2,4-dicarboxamide]	4.6	
Cc1nn(Cc2ccccc2C#N)c(C)c1NC(=O)c1cc(C(N)=O)nc2ccccc12 [Example 232, N^4-[1-(2-cyanobenzyl)-3,5-dimethyl-1H-pyrazol-4-yl]quinoline-2,4-dicarboxamide]	7	
COc1ccc2nc(C3CC3)cc(C(=O)Nc3c(C)nn(Cc4ccc(F)cc4)c3C)c2c1 [Example 233, 2-cyclopropyl-N-[1-(4-fluorobenzyl)-3,5-dimethyl-1H-pyrazol-4-yl]-6-methoxyquinoline-4-carboxamide]	7.2	
COc1ccc(Cn2nc(C)c(NC(=O)c3cc(C(N)=O)nc4cc(F)c(Cl)cc34)c2C)cc1F [Example 237, 6-chloro-7-fluoro-N^4-[1-(3-fluoro-4-methoxybenzyl)-3,5-dimethyl-1H-pyrazol-4-yl]quinoline-2,4-dicarboxamide]	0.4	
COc1cc(C(=O)Nc2c(C)nn(Cc3ccc(OC)c(F)c3)c2C)c2ccccc2n1 [Example 239, N-[1-(3-fluoro-4-methoxybenzyl)-3,5-dimethyl-1H-pyrazol-4-yl]-2-methoxyquinoline-4-carboxamide]	2.9	
Cc1c(NC(=O)c2cc(C(N)=O)nc3c(F)cc(Cl)cc23)c(C(F)(F)F)nn1Cc1ccc(C#N)cc1 [Example 241, 6-chloro-N^4-[1-(4-cyanobenzyl)-5-methyl-3-(trifluoromethyl)-1H-pyrazol-4-yl]-8-fluoroquinoline-2,4-dicarboxamide]	1.1	
COc1cc2c(C(=O)Nc3c(C(F)(F)F)nn(Cc4ccc(C#N)cc4)c3C)cc(C(N)=O)nc2cc1F [Example 242, N^4-[1-(4-cyanobenzyl)-5-methyl-3-(trifluoromethyl)-1H-pyrazol-4-yl]-7-fluoro-6-methoxyquinoline-2,4-dicarboxamide]	1	
Cc1c(NC(=O)c2cc(C(N)=O)nc3cc(F)cc(F)c23)c(C(F)(F)F)nn1Cc1ccc(C#N)cc1 [Example 243, N^4-[1-(4-cyanobenzyl)-5-methyl-3-(trifluoromethyl)-1H-pyrazol-4-yl]-5,7-difluoroquinoline-2,4-dicarboxamide]		0.5
COc1ccc2nc(C(N)=O)cc(C(=O)Nc3c(C(F)(F)F)nn(Cc4ccc(C#N)cc4)c3C)c2c1 [Example 245, N^4-[1-(4-cyanobenzyl)-5-methyl-3-(trifluoromethyl)-1H-pyrazol-4-yl]-6-methoxyquinoline-2,4-dicarboxamide]		0.3

The next lines start with results.

IC50 [nM]	SMILES	IC50 [1] [nM]
2.1	Cc1c(NC(=O)c2cc(C(N)=O)nc3cc(F)c(F)cc23)c(C(F)(F)F)nn1Cc1ccc(C#N)cc1 [Example 216, N^4-[1-(4-cyanobenzyl)-5-methyl-3-(trifluoromethyl)-1H-pyrazol-4-yl]-6,7-difluoroquinoline-2,4-dicarboxamide]	
3.2	Cc1nn(Cc2ccc(S(C)(=O)=O)cc2)c(C)c1NC(=O)c1cc(C(F)(F)F)nc2ccc(Br)cc12 [Example 217, 6-bromo-N-{3,5-dimethyl-1-[4-(methylsulfonyl)benzyl]-1H-pyrazol-4-yl}-2-(trifluoromethyl)quinoline-4-carboxamide]	
5.4	Cc1c(NC(=O)c2cc(C(N)=O)nc3ccc(F)cc23)c(C(F)(F)F)nn1Cc1ccc(C#N)cc1 [Example 219, N^4-[1-(4-cyanobenzyl)-5-methyl-3-(trifluoromethyl)-1H-pyrazol-4-yl]-6-fluoroquinoline-2,4-dicarboxamide]	
6.7	Cc1nn(Cc2ccccc2C#N)c(C)c1NC(=O)c1cc(C(N)=O)nc2ccc(F)cc12 [Example 221, N^4-[1-(2-cyanobenzyl)-3,5-dimethyl-1H-pyrazol-4-yl]-6-fluoroquinoline-2,4-dicarboxamide]	
7.1	Cc1nn(Cc2ncccc2C#N)c(C)c1NC(=O)c1cc(C(N)=O)nc2cc(F)c(F)cc12 [Example 222, N^4-{1-[(3-cyanopyridin-2-yl)methyl]-3,5-dimethyl-1H-pyrazol-4-yl}-6,7-difluoroquinoline-2,4-dicarboxamide]	
11.1	Cc1nn(Cc2cccnc2C#N)c(C)c1NC(=O)c1cc(C(N)=O)nc2ccccc12 [Example 223, N^4-{1-[(2-cyanopyridin-3-yl)methyl]-3,5-dimethyl-1H-pyrazol-4-yl}quinoline-2,4-dicarboxamide]	
14	Cc1nn(Cc2ccc(C#N)nc2)c(C)c1NC(=O)c1cc(C(N)=O)nc2ccccc12 [Example 225, N^4-{1-[(6-cyanopyridin-3-yl)methyl]-3,5-dimethyl-1H-pyrazol-4-yl}quinoline-2,4-dicarboxamide]	
4.6	Cc1nn(Cc2ccc(C#N)cc2)c(C)c1NC(=O)c1cc(C(N)=O)nc2ccc(F)cc12 [Example 228, N^4-[1-(4-cyanobenzyl)-3,5-dimethyl-1H-pyrazol-4-yl]-6-fluoroquinoline-2,4-dicarboxamide]	
5	Cc1nn(Cc2ccc(C#N)cc2)c(C)c1NC(=O)c1cc(C(N)=O)nc2cc(F)c(F)cc12 [Example 230, N^4-[1-(4-cyanobenzyl)-3,5-dimethyl-1H-pyrazol-4-yl]-6,7-difluoroquinoline-2,4-dicarboxamide]	
5.8	Cc1nn(Cc2ccc(S(C)(=O)=O)cc2)c(C)c1NC(=O)c1cc(C(N)=O)nc2cc(F)c(F)cc12 [Example 231, N^4-{3,5-dimethyl-1-[4-(methylsulfonyl)benzyl]-1H-pyrazol-4-yl}-6,7-difluoroquinoline-2,4-dicarboxamide]	
9.2	Cc1nn(Cc2ncccc2C#N)c(C)c1NC(=O)c1cc(C(F)(F)F)nc2ccc(Br)cc12 [Example 234, 6-bromo-N-{1-[(3-cyanopyridin-2-yl)methyl]-3,5-dimethyl-1H-pyrazol-4-yl}-2-(trifluoromethyl)quinoline-4-carboxamide]	
10.9	Cc1nn(Cc2ccccc2C#N)c(C)c1NC(=O)c1cc(C(N)=O)nc2cc(F)c(F)cc12 [Example 235, N^4-[1-(2-cyanobenzyl)-3,5-dimethyl-1H-pyrazol-4-yl]-6,7-difluoroquinoline-2,4-dicarboxamide]	
0.4	COc1ccc(Cn2nc(C)c(NC(=O)c3cc(C(N)=O)nc4cc(F)c(F)cc34)c2C)cc1F [Example 236, 6,7-difluoro-N^4-[1-(3-fluoro-4-methoxybenzyl)-3,5-dimethyl-1H-pyrazol-4-yl]quinoline-2,4-dicarboxamide]	
1.1	COc1ccc(Cn2nc(C)c(NC(=O)c3cc(C(N)=O)nc4ccccc34)c2C)cc1F [Example 238, N^4-[1-(3-fluoro-4-methoxybenzyl)-3,5-dimethyl-1H-pyrazol-4-yl]quinoline-2,4-dicarboxamide]	
17.6	Cc1cccc2nc(C(N)=O)cc(C(=O)Nc3c(C(F)(F)F)nn(Cc4ccc(C#N)cc4)c3C)c12 [Example 244, N^4-[1-(4-cyanobenzyl)-5-methyl-3-(trifluoromethyl)-1H-pyrazol-4-yl]-5-methylquinoline-2,4-dicarboxamide]	
